The term IC50 denotes the point on the concentration scale where inhibition reaches its midpoint. The low end stands for higher potency, the high end for lower potency.

Drawing on paper PMC9343791, “Evaluation of Herb–Drug Interaction Between Danshen and Rivaroxaban in Rat and Human Liver Microsomes” (Frontiers in Pharmacology, 2022), this text covers IC50 for one compound.

The target of experiment [1] is T1, CYP3A2 (Rattus norvegicus, UniProt P05183).
T1 sequence (P05183 1-504): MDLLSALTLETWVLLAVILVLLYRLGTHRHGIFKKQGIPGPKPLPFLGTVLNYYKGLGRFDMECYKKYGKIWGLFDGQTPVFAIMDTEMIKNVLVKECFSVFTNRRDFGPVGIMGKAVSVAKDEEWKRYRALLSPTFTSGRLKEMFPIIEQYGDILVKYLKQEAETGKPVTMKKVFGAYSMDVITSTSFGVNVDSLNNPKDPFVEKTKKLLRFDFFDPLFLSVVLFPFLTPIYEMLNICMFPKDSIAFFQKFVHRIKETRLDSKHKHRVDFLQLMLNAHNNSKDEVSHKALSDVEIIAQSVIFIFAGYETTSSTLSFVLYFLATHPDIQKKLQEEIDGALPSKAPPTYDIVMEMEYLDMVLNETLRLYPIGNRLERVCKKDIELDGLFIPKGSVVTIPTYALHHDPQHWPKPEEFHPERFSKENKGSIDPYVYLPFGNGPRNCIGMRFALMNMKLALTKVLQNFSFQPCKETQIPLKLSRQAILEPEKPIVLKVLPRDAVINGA
Briefly: midazolam probe-substrate inhibition in pooled rat liver microsomes, LC-MS/MS. It is filed as biochemical. In general terms: Liver microsomes are vesicles of endoplasmic reticulum, rich in cytochrome P450 enzymes.

For experiment [2], the target named is T2, CYP2J3 (Rattus norvegicus, UniProt P51590).
T2 sequence (P51590 1-502): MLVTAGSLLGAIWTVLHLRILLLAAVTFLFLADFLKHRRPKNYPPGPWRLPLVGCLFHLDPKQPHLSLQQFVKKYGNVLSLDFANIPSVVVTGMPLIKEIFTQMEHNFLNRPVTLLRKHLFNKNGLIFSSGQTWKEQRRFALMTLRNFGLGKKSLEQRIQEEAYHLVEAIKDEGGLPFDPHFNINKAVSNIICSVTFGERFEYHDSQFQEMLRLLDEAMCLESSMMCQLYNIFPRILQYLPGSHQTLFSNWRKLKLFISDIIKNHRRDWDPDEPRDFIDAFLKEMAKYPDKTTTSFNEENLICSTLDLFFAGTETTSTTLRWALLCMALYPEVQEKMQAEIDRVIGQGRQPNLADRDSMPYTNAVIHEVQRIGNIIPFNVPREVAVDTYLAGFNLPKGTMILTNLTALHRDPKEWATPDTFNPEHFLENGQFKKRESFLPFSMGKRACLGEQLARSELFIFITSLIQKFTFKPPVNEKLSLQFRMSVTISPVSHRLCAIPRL
Briefly: astemizole probe-substrate inhibition in pooled rat liver microsomes, LC-MS/MS. The experiment is classed as biochemical.

For `Cc1cccc2c3c(ccc12)C1=C(C(=O)C3=O)[C@@H](C)CO1` [dihydrotanshinone I], the results for the IC50 in experiment [1] and in experiment [2] were 13.8 µM and 6.39 µM, respectively.
